In the experiment the target is T1, Poly [ADP-ribose] polymerase tankyrase-2 (Homo sapiens, UniProt Q9H2K2).
T1 sequence (Q9H2K2 whole entry): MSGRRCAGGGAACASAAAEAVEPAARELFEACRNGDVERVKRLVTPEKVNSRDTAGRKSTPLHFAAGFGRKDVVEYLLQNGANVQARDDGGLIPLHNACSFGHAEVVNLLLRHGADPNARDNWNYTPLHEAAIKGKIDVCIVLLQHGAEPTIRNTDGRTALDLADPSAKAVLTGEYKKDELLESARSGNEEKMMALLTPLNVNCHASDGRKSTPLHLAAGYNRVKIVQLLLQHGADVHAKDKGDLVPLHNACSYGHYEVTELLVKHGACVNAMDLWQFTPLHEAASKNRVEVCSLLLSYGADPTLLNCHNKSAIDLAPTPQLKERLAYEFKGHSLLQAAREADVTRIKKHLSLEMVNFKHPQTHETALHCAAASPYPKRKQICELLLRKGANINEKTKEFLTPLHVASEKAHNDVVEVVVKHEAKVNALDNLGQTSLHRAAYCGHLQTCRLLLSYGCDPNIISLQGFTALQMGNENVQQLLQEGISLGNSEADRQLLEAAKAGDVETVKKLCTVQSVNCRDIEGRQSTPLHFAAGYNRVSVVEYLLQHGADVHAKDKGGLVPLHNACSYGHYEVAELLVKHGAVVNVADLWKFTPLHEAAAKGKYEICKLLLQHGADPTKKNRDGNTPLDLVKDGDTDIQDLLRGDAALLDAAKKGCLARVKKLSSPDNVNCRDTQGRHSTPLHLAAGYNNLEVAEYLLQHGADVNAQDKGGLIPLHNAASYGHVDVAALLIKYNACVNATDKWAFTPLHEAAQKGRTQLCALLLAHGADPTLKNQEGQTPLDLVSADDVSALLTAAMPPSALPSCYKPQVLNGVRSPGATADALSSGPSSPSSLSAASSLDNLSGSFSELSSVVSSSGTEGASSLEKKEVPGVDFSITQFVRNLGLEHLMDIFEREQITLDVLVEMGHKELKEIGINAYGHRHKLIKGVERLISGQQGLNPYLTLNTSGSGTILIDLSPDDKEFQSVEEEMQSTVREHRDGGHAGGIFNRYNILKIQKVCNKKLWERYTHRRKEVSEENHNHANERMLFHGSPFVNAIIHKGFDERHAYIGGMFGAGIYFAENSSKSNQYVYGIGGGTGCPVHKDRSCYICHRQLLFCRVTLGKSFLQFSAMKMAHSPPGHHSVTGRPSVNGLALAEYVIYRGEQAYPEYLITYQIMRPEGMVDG
The experiment can be described thus: Activity of N-terminus hexaHis-tagged human TNSK2 expressed in Escherichia coli BL21 (DE3) cells using biotinylated NAD+ as substrate after 90 mins by Western blot analysis. Background: In western blotting, separated proteins are transferred to a membrane and probed.

This passage reports EC50 results from BindingDB's records for doi:10.1021/jm201510p (Abo Akademi University, 2012).

As a reminder, the EC50 is the concentration needed to bring the measured effect to its halfway point. A higher EC50 goes with lower potency in that assay. Turning to `O=C(NC1CCCCC1)c1ccc(-n2c(O)c3c(c2O)[C@H]2C=C[C@@H]3C2)cc1` [N-Cyclohexyl-4-((1R,2S,6R,7S)-3,5-dioxo-4-aza-tricyclo[5.2.1.0*2,6*]dec-8-en-4-yl)-benzamide], the EC50 is above 25 µM.

In turn, `O=C(Nc1ccccc1)c1ccc(-n2c(O)c3c(c2O)[C@H]2C=C[C@@H]3C2)cc1` showed an EC50 above 25 µM.
